This is an account of results in PMC3161871, “Heteroarylketones inhibit astroglial interleukin-6 expression via a STAT3/NF-κB signaling pathway” (Journal of Neuroinflammation, 2011).

The nature of data set [1]: Brain bioavailability by LC-MS/MS of mouse plasma and brain samples. It is filed as in vivo. As to the method:
Based on the results obtained from primary murine astrocytes, we reasoned that HAK compounds might also suppress elevated IL-6 expression in vivo. Therefore, bioactivity of the compound HAK-2 was analyzed in the LPS-induced mouse septic shock model. In preparation of this in vivo study, selected HAK compounds were characterized in detail concerning brain bioavailability. […] For further in vivo investigations compound HAK-2 with a logBB of -0.22 was selected.

In data set [2] the test system is STAT3/p65 complex. The experiment in a line: Co-immunoprecipitation of p65 and STAT3 in OSM-stimulated U343 cells. It counts as cell-based, human. The note with it: 100 ng/ml OSM, 20 μM compound, 6 h. As to the method:
Cell lysates from 4 × 10^6 U343 cells/sample were obtained as described above. From each sample 200 μg of total protein were immunoprecipitated with 2 μg rabbit anti-p65 antibody (Santa Cruz Biotechnology; Heidelberg, Germany) or A. dest. (control) overnight at 4°C. Immunoprecipitated samples were incubated with 20 μl Dynabeads Protein G (Thermo Fisher Scientific, Karlsruhe, Germany) for 1 h at 4°C. Beads were washed 3 times with 1 ml PBS. Preparation of samples for SDS-PAGE analysis was done by means of dilution with SDS-PAGE sample buffer (Invitrogen, Darmstadt, Germany), followed by denaturation at 90°C for 10 min. SDS-PAGE analysis were performed as described before.
Normally, STAT3 is activated by phosphorylation at tyrosine 705, which induces dimerization, nuclear translocation and DNA binding. In contrast to other transcription factors like NF-κB, Creb and c/EBPb, STAT3 can not bind directly to the IL-6 promoter, because there are no STAT3 binding elements present. It is known from literature that several forms of interactions and cross talks between NF-κB and STAT3 exist. For instance, recent studies have shown a physical interaction between STAT3 and NF-κB [42, 43]. The importance of pSTAT3^S727 for protein interactions are under discussion. However, there is no information so far on the role of pSTAT3^S727 for the interaction with NF-κB. […]

Data set [3] concerns the target T1, human recombinant prolyl endopeptidase (PREP) (Homo sapiens, UniProt P48147).
T1 construct: made in house
T1 sequence (P48147 1-710): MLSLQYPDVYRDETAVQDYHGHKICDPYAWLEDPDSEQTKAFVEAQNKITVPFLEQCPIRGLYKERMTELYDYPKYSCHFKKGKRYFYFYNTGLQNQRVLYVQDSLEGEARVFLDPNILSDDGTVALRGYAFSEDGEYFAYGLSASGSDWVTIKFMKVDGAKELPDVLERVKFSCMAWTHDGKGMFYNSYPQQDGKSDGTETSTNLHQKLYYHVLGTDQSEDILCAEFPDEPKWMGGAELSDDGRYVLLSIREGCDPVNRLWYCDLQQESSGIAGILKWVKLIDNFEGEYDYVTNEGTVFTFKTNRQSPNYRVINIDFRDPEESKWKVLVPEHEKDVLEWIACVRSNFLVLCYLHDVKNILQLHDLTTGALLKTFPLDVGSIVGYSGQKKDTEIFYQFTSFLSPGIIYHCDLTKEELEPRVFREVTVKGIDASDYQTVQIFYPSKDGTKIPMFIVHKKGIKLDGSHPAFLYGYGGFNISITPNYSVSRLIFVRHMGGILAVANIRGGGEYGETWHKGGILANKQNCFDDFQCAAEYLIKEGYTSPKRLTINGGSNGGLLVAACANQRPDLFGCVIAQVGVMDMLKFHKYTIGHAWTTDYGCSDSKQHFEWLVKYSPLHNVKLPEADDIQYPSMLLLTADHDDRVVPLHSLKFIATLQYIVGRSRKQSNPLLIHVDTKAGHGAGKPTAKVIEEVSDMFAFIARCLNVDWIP
The experiment in a line: PREP enzymatic activity assay (Z-Gly-Pro-pNA, photometric). It counts as biochemical. The note with it: recombinant PREP, Z-Gly-Pro-pNA 62.5/125/250 μM, pH 7.6, 30°C, competitive fit. As to the method: The activity of human recombinant prolyl endopeptidase (PREP) was determined photometrically using the substrate Z-Gly-Pro-pNA (Bachem, Weil am Rhein, Germany) usually at a concentration of 150 μM. As assay buffer 50 mM HEPES buffer pH 7.6, containing 200 mM NaCl, 1 mM EDTA, and 1 mM dithiothreitol was used. Release of pNA was monitored continuously at 405 nm for 15 min at 30°C in a 96-well plate reader (Spectrafluor, Tecan, Crailsheim, Germany). PREP activity was calculated from the slope of the time product curve with the help of a pNA standard. For determination of Ki values three different substrate concentrations (62.5 μM; 125 μM and 250 μM) and seven different inhibitor concentrations were analyzed. Substrate concentrations were selected to be at the Km value of Z-Gly-Pro-pNA (125 μM) as well as half and twice the Km. Data were fitted by non-linear regression to the competitive inhibitor equation (Graphit 5.0, Erithacus software).

With `C[C@H](NC(=O)OCc1ccccc1)C(=O)N1CCC[C@H]1C(=O)c1nc2ccccc2s1` [HAK-2, Z-Ala-Pro-BTh], the logBB in data set [1] is on record as -0.22. Moreover, the “p65-mediated STAT3 co-immunoprecipitation” value in data set [2] was “clear reduction”. The Ki in data set [3] turned out to be 0.038 nM.

In general, Ki refers to a dissociation constant, usually derived from enzyme kinetics or from competition with a known ligand.
